Here are results for one molecule from patent US8603527B2, “Pharmaceutical formulations of a substituted diaminopurine” (Signal Pharmaceuticals, LLC, priority 2010, dated 2013).

The data set is described as follows: Relative bioavailability and food effect crossover study of formulated capsules in healthy male subjects. Format: in vivo, human. The note with it: Treatments A-D, single 100 mg dose. An excerpt:
Methods: This was an open-label, randomized, 4-treatment, 4-period, 4-sequence crossover study in healthy subjects to evaluate relative bioavailability and food effect on Compound I capsule formulations. The study consisted of a screening phase (Day −21 to Day −2) for subject eligibility, a baseline/admission phase (Day −1) for each period, treatment and assessment phase (Days 1 to Day 8) for each period, and a follow-up visit (Day 15±2 days from the last dose). During each period, subjects were domiciled at the study site from Day −1 through Day 2 (discharged on Day 3 after PK sampling and safety evaluations). Subjects then visited the study center on Days 4, 6, and 8 of each period for PK sampling and safety evaluations. Between periods, there was a minimum of 10 days of washout from the prior dose to the next dose (no more than 14 days).
Sixteen (16) male subjects were be randomized to one of the following 4 treatment sequences (4 subjects per sequence) on Day 1 of Period 1:
Subjects started fasting from the night of Day −1 for a minimum of 10 hours prior to dosing. On Day 1 of each period, subjects received their randomized treatment of Compound I at approximately 8 AM. […] Approximately 5 mL of blood sample was collected on days 1-8 for PK analysis. Subjects received standardized meals scheduled at approximately the same time during confinement in each period of the study.

For the molecule `O[C@H]1CC[C@H](Nc2ncc3nc(Nc4c(F)cc(F)cc4F)n([C@H]4CCOC4)c3n2)CC1` [Compound I, 4-((9-((3S)-tetrahydro-3-furanyl)-8-((2,4,6-trifluorophenyl)amino)-9H-purin-2-yl)amino)-trans-cyclohexanol], the “AUCt, Intra-Subject CV %” value is given as 16.1%; the “AUC∞, Intra-Subject CV %” value amounted to 15.3%; the “Cmax, Intra-Subject CV %” value worked out at 36.8%.
